# Data from PMC6474387, “Salt-Tolerant Antifungal and Antibacterial Activities of the Corn Defensin ZmD32” (Frontiers in Microbiology, 2019).
# Where two headings read alike, the source gives them in different places.
# What was measured:
# C. albicans ATCC 90028 = format: cell-based, Candida albicans
# C. auris = format: cell-based, Candida auris; conditions: OD595, 24 h
# C. glabrata ATCC 90030 = format: cell-based, Candida glabrata; conditions: OD595, 24 h
# C. krusei = format: cell-based, Candida krusei; conditions: OD595, 24 h
# C. parapsilosis = format: cell-based, Candida parapsilosis; conditions: OD595, 24 h
# C. tropicalis ATCC 750 = format: cell-based, Candida tropicalis; conditions: OD595, 24 h
# F. graminearum PH-1 = format: cell-based, Fusarium graminearum; conditions: ½ PDB, no added NaCl; 5 × 10^4 spores/mL; OD595, 24 h
# E. coli [1] = format: cell-based, Escherichia coli; conditions: strain TOP10, OD595, 24 h
# S. aureus ATCC 9144 = format: cell-based, Staphylococcus aureus; conditions: ½ PDB adjusted to pH 7, no added NaCl; OD595, 24 h
# B. subtilis = format: cell-based, Bacillus subtilis; conditions: ½ PDB adjusted to pH 7, no added NaCl, OD595, 24 h
# P. aeruginosa PAO1 = format: cell-based, Pseudomonas aeruginosa; conditions: ½ PDB adjusted to pH 7, no added NaCl; OD595, 24 h
# [2] = tested on: E. coli, B. subtilis, S. aureus, and P. aeruginosa; format: cell-based; conditions: ½ PDB, pH 7; range over four bacteria
# C. albicans biofilms = experiment: Anti-biofilm assay, Presto Blue viability; format: cell-based, Candida albicans; conditions: 24 h biofilm, 24 h treatment at 37°C in RPMI (132.1 mM sodium), twofold dilution from 300 μg/mL
# E. coli [3] = conditions: assays conducted in LB; ref van der Weerden et al., 2008; cited from earlier work
# Description: (§1) The antibacterial activity of ZmD32 and NaD1 adds to a growing list of antibacterial defensins ([Sathoff and Samac, 2018]; [Sathoff et al., 2018]; [Velivelli et al., 2018]), a protein family that is best known for antifungal activity ([van der Weerden and Anderson, 2013]; [van der Weerden et al., 2013]; [Parisi et al., 2018]). The lack of reported antibacterial activity for plant defensins likely reflects the medium used for antibacterial assays, Here the ½ PDB pH 7 medium has a NaCl concentration of less than 10 mM. This concentration is considerably lower than growth media often used in anti ...
# S. aureus = conditions: assays conducted in LB; ref van der Weerden et al., 2008; cited from earlier work
# Description: as §1
# [4] = tested on: prostate cancer (PC3) cells; experiment: MTT cell viability assay, PC3; conditions: 48 h, twofold dilution series from 50 μM down, three independent replicates
# Description: (§2) Leukemia monocyte lymphoma (U937) cells and prostate cancer (PC3) cells were cultured in RPMI-1640 medium (Sigma) buffered to pH 7.2 with HEPES and supplemented with 5–10% (v/v) fetal calf serum (FCS), 100 U/mL penicillin (Sigma) and 100 μg/mL streptomycin (Invitrogen). […] All cell lines were cultured at 37°C in a humidified atmosphere containing 5% CO2. Cell viability assays were performed using an MTT assay as described in ([Poon et al., 2014]). […] IC50 values were determined using GraphPad Prism 5 (GraphPad Software, CA, United States).
# [5] = tested on: Leukemia monocyte lymphoma (U937) cells; experiment: MTT cell viability assay, U937; conditions: 48 h, twofold dilution series from 50 μM down, three independent replicates
# Description: as §2
# [6] = Membrane lipid binding assay (protein-lipid overlay); conditions: detected with α-NaD2 (ZmD32) or α-NaD1 (NaD1) antibody; representative of three independent experiments
# Description: Lipid binding assays were performed using Membrane Lipid Strips (Echelon Biosciences) as described in ([Poon et al., 2014]). ZmD32 binding to the lipids on the strips was detected using a polyclonal antibody generated in rabbits to the defensin NaD2 with which it shares 78.7% amino acid sequence identity ([Dracatos et al., 2014]). […] Lipid binding of NaD1 was performed as described in ([Poon et al., 2014]).
# [7] = ½ PDB + 100 mM NaCl, read-out: NaCl IC50
# [8] = ½ PDB, no added NaCl, read-out: IC50
# Description for human red blood cells: Human blood was obtained from the Australian Red Cross Blood Service (Melbourne, VIC, Australia) under Material Supply Agreement 14-11VIC-03. Hemolytic activity of defensins was assessed as described in ([Evans et al., 2013]). The degree of red blood cell (RBC) lysis was measured by absorbance at 412 nm, relative to water-lysed RBCs.
substance,measurement,setting,value
"NaD1: well-characterized antifungal plant defensin from Nicotiana alata floral tissues or recombinant from Pichia pastoris; used as standard (RECKTESNTFPGICITKPPCRKACISEKFTDGHCSKILRRCLCTKPC; UniProt Q8GTM0 26-72, looked up)",Activity against C. albicans in the presence of divalent metal salts,"C. albicans ATCC 90028; 5 mM MgCl2 or 2 mM CaCl2, data not shown",lost activity
same,IC50,C. albicans ATCC 90028; read-out: IC50,1600 ± 400 nM
same,IC50,C. albicans ATCC 90028; read-out: NaCl IC50,> 10000 nM
same,IC50,C. auris; [7],> 10000 nM
same,IC50,C. auris; [8],2900 ± 500 nM
same,IC50,C. glabrata ATCC 90030; [7],> 10000 nM
same,IC50,C. glabrata ATCC 90030; [8],2800 ± 1000 nM
same,IC50,C. krusei; [7],> 10000 nM
same,IC50,C. krusei; [8],1200 ± 400 nM
same,IC50,C. parapsilosis; [7],3400 ± 1200 nM
same,IC50,C. parapsilosis; [8],1200 ± 300 nM
same,IC50,C. tropicalis ATCC 750; [7],1300 ± 500 nM
same,IC50,C. tropicalis ATCC 750; [8],400 ± 100 nM
same,IC50,F. graminearum PH-1,1000 ± 500 nM
same,IC50,"E. coli [1]; ½ PDB adjusted to pH 7 + 100 mM NaCl, read-out: NaCl IC50",> 10000 nM
same,IC50,"E. coli [1]; ½ PDB adjusted to pH 7, no added NaCl, read-out: IC50",4600 ± 1600 nM
same,IC50,S. aureus ATCC 9144,5000 ± 500 nM
same,IC50,B. subtilis,2000 ± 200 nM
same,IC50,P. aeruginosa PAO1,4300 ± 300 nM
same,IC50,[2],2000 to 5000 nM
same,Activity against established C. albicans biofilms,C. albicans biofilms,no activity
same,Red blood cells lysed at concentrations up to 50 μM,human red blood cells,≤ 2%
same,Activity against E. coli,E. coli [3],no activity
same,Activity against S. aureus,S. aureus,no activity
same,Effect on viability of PC3 cells,[4],decreased viability of all three cell lines at much lower concentrations than ZmD32
same,Effect on viability of U937 cells,[5],decreased viability of all three cell lines at much lower concentrations than ZmD32
same,Lipids bound on membrane lipid strip,[6],"bound preferentially to phosphatidylinositol-4,5-bisphosphate [PI(4,5)P2] but also bound to phosphatidic acid (PA) and cardiolipin"
